Measurements taken from patent publication US20240208992A1, “MACROCYCLES AS CFTR MODULATORS” (Idorsia Pharmaceuticals Ltd, priority 2021, published 2024).

Target: human F508del-CFTR (Homo sapiens, UniProt P13569, DEL508-508)
Assay: F508del-CFTR cell surface expression (corrector activity), DiscoveRx ß-galactosidase complementation chemiluminescence assay in recombinant U2OS cell line;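 also: U2OS cells co-expressing ProLink-tagged F508del-CFTR and a membrane-anchored enzyme acceptor, where more surface CFTR restores β-galactosidase activity measured by chemiluminescence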
Conditions: for EC50: EC50, F508del-CFTR cell surface expression; for Emax: U2OS
[1] = U2OS cell line, 16h compound incubation, geomean values
[2] = in relation to the Emax of the corrector lumacaftor (=100%), U2OS cell line, 16h compound incubation, arithmetic mean values
[3] = U2OS cells, 16h compound incubation, geomean values
[4] = in relation to Emax of corrector lumacaftor (=100%), arithmetic mean values

human F508del-CFTR, sequence (P13569 with tags, fused parts or gaps DEL508-508): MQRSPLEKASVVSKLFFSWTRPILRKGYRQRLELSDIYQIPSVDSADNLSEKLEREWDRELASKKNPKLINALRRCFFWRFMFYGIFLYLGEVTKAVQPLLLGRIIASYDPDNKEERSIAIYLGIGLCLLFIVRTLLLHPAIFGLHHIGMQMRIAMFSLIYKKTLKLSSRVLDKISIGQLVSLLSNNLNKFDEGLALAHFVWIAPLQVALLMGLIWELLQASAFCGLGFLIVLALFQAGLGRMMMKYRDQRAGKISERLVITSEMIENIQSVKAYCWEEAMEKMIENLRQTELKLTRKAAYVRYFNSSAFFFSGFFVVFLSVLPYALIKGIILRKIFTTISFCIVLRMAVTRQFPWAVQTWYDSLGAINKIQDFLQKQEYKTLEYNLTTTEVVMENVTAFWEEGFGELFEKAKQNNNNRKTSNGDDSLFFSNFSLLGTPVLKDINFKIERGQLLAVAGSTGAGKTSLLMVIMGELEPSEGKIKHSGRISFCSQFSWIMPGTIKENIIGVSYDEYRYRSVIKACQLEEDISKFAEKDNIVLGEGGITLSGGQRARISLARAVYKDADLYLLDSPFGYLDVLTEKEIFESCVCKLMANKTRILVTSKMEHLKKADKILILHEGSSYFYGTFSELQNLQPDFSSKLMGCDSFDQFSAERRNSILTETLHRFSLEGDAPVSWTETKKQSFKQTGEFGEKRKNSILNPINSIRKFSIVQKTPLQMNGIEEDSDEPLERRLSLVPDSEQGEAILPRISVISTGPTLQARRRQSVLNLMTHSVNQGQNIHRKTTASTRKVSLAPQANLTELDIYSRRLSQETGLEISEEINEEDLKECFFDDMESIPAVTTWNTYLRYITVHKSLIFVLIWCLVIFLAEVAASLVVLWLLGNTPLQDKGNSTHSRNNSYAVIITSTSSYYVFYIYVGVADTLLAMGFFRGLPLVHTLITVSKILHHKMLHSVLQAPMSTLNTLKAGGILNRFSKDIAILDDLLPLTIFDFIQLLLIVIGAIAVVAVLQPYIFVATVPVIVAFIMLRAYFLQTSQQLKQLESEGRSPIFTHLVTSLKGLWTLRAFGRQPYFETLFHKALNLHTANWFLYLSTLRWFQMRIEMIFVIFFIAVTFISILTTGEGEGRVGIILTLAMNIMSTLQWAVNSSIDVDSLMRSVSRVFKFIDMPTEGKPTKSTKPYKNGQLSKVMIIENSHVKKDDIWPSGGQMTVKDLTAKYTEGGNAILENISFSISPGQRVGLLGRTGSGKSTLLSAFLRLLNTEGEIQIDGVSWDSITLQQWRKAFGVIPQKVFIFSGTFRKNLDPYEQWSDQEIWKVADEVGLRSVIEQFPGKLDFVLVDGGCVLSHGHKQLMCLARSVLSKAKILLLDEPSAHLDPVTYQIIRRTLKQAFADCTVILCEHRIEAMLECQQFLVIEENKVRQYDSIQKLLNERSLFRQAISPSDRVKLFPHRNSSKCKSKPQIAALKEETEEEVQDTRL

SMILES	EC50 [1] [nM]	Emax [2] [%]	EC50 [3] [nM]	Emax [4] [%]	also measured
CN1C(=O)C[C@@H](C(=O)NCCc2ccc3c(c2)OCO3)NC(=O)c2c(ccc3ccccc23)OC[C@@H](Cc2ccccc2)NC(=O)CN(C[C@H]2CCCCO2)C(=O)[C@@H]1CC1CC1 [Example 340, (3S,7S,13R)-N-(2-(benzo[d][1,3]dioxol-5-yl)ethyl)-13-benzyl-7-(cyclopropylmethyl)-6-methyl-1,5,8,11-tetraoxo-9-(((R)-tetrahydro-2H-pyran-2-yl)methyl)-1,2,3,4,5,6,7,8,9,10,11,12,13,14-tetradecahydronaphtho[1,2-p][1]oxa[4,7,10,14]tetraazacycloheptadecine-3-carboxamide]	278	139			
Cc1cc2c3c(ccc2cn1)OC[C@@H](Cc1ccccc1)NC(=O)[C@@H](Cc1nc(C(F)F)no1)N(C)C(=O)[C@H](CC(C)C)N(C)C(=O)C[C@@H](C(=O)NCCn1nnc(C2CC2)n1)NC3=O [Example 921, (3S,7S,10R,13R)-13-benzyl-N-(2-(5-cyclopropyl-2H-tetrazol-2-yl)ethyl)-10-((3-(difluoromethyl)-1,2,4-oxadiazol-5-yl)methyl)-7-isobutyl-6,9,20-trimethyl-1,5,8,11-tetraoxo-1,2,3,4,5,6,7,8,9,10,11,12,13,14-tetradecahydro-[1]oxa[4,7,10,14]tetraazacycloheptadecino[16,17-f]isoquinoline-3-carboxamide]					EC50 (U2OS cells, 16h compound incubation, geomean of several measurements): 231 nM; Emax (in relation to the Emax of the corrector lumacaftor (=100%), U2OS cells, 16h compound incubation, arithmetic mean): 393%
COc1cc(CCNC(=O)[C@@H]2CC(=O)N(C)[C@@H](CC(C)C)C(=O)N(C)[C@H](C)C(=O)N[C@H](Cc3ccccc3)COc3ccc4ncc(F)cc4c3C(=O)N2)on1 [Example 786, (3S,7S,10R,13R)-13-benzyl-20-fluoro-7-isobutyl-N-(2-(3-methoxyisoxazol-5-yl)ethyl)-6,9,10-trimethyl-1,5,8,11-tetraoxo-1,2,3,4,5,6,7,8,9,10,11,12,13,14-tetradecahydro-[1]oxa[4,7,10,14]tetraazacycloheptadecino[16,17-f]quinoline-3-carboxamide]			156	337	
COc1cccc(CCNC(=O)[C@@H]2CC(=O)N(C)[C@@H](CC(C)C)C(=O)N3CCCC[C@@H]3C(=O)N[C@H](Cc3ccccc3)COc3nc4ccccn4c3C(=O)N2)c1 [Example 469, (7S,11S,22R,24aR)-22-benzyl-7-isobutyl-N-(3-methoxyphenethyl)-8-methyl-6,9,13,24-tetraoxo-1,3,4,6,7,8,9,10,11,12,13,21,22,23,24,24a-hexadecahydro-2H-pyrido[2,1-f]pyrido[2′,1′:2,3]imidazo[4,5-p][1]oxa[4,7,10,14]tetraazacycloheptadecine-11-carboxamide]			381	110	
COc1cccc(CCNC(=O)[C@@H]2CC(=O)N(C)[C@@H](CC(C)C)C(=O)N3CCN(C4CCC4)C[C@@H]3C(=O)N[C@H](Cc3ccccc3)COc3ccc4ccccc4c3C(=O)N2)c1 [Example 355, (4aR,7R,18S,22S)-7-benzyl-3-cyclobutyl-22-isobutyl-N-(3-methoxyphenethyl)-21-methyl-5,16,20,23-tetraoxo-2,3,4,4a,5,6,7,8,16,17,18,19,20,21,22,23-hexadecahydro-1H-naphtho[1,2-p]pyrazino[2,1-f][1]oxa[4,7,10,14]tetraazacycloheptadecine-18-carboxamide]	87	307			
CC(C)C[C@H]1C(=O)N(C)C2(CC2)C(=O)N[C@H](Cc2ccccc2)COc2cnc3ccc(F)cc3c2C(=O)N[C@H](C(=O)NCCc2noc(C3CC3)n2)CC(=O)N1C [Example 144, (3′S,7′S,13′R)-13′-benzyl-N-(2-(5-cyclopropyl-1,2,4-oxadiazol-3-yl)ethyl)-20′-fluoro-7′-isobutyl-6′,9′-dimethyl-1′,5′,8′,11′-tetraoxo-2′,3′,4′,5′,6′,7′,8′,9′,11′,12′,13′,14′-dodecahydro-1′H-spiro[cyclopropane-1,10′-[1]oxa[4,7,10,14]tetraazacycloheptadecino[17,16-c]quinoline]-3′-carboxamide]	211	327			
